Results published in US20140179794A1, “LEVOMILNACIPRAN-BASED DRUG FOR FUNCTIONAL RECOVERY AFTER ACUTE NEUROLOGICAL EVENTS” (PIERRE FABRE MEDICAMENT, priority 2011, published 2014).
pKi: −log10 of the molar value.

Test: Binding to the recombinant human alpha1 receptor (prazosin [3H], CHO cell membranes)
Description: The bound fraction was separated by filtration and washing in cooled TRIS+NaCl+KCl buffer. […] The bound fraction was separated by filtration and washing in cooled TRIS+NaCl+KCl buffer. […] The bound fraction was separated by filtration and washing in cooled TRIS buffer.

Row | Compound | pKi
1 | CCN(CC)C(=O)C1(c2ccccc2)CC1CN (centres unmarked) [dextromilnacipran] | 5.47
2 | CCN(CC)C(=O)[C@@]1(c2ccccc2)C[C@H]1CN [levomilnacipran] | 3.96
